Assay results taken from PubChem BioAssay AID330 (DTP/NCI, 2004).
Where “and” joins values, the source holds several entries; their conditions need not be identical. Equal entries are not always repeated. Inconclusive results and toxic doses are left out.

System: P388 leukemia ip, CD2F1 mice, survival T/C
Experiment: NCI In Vivo Anticancer Drug Screen. Data for tumor model P388 Leukemia (intraperitoneal) in CD2F1 (CDF1) mice
Conditions: endpoint: median survival time, higher = longer survival
Summary of the method: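 Mice carrying the transplanted tumor received test compound or vehicle. Survival was recorded in each group, and the value is the treated-group measurement divided by that of the vehicle-treated control group.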

[1] = dose: 50.0 mg/kg/injection, schedule: Q01DX005 (ip), vehicle: saline with Tween-80
[2] = dose: 100.0 mg/kg/injection, schedule: Q01DX005 (ip), vehicle: saline with Tween-80
[3] = dose: 200.0 mg/kg/injection, schedule: Q01DX005 (ip), vehicle: saline with Tween-80
[4] = dose: 100.0 mg/kg/injection, schedule: Q04DX003 (ip), vehicle: Klucel (hydroxypropylcellulose) (HPC)
[5] = dose: 200.0 mg/kg/injection, schedule: Q04DX003 (ip), vehicle: Klucel (hydroxypropylcellulose) (HPC)
[6] = dose: 50.0 mg/kg/injection, schedule: Q01DX009 (ip), vehicle: saline
[7] = dose: 100.0 mg/kg/injection, schedule: Q04DX002 (ip), vehicle: Klucel (hydroxypropylcellulose) (HPC)
[8] = dose: 200.0 mg/kg/injection, schedule: Q04DX002 (ip), vehicle: Klucel (hydroxypropylcellulose) (HPC)
[9] = dose: 400.0 mg/kg/injection, schedule: Q04DX002 (ip), vehicle: Klucel (hydroxypropylcellulose) (HPC)
[10] = dose: 50.0 mg/kg/injection, schedule: Q01DX009 (ip), vehicle: saline with Tween-80
[11] = dose: 100.0 mg/kg/injection, schedule: Q01DX009 (ip), vehicle: saline with Tween-80

O=C1NC(=O)C(O)(C2=C(O)CCCC2=O)C(=O)N1
T/C [1]: 99 % of control
T/C [2]: 103 % of control
T/C [3]: 94 % of control

COc1cc(/C=N/NC(=O)COCC(=O)N/N=C/c2ccc(O)cc2OC)ccc1O
T/C (dose: 6.25 mg/kg/injection, schedule: Q01DX005 (ip), vehicle: saline with Tween-80): 103 % of control
T/C (dose: 12.5 mg/kg/injection, schedule: Q01DX005 (ip), vehicle: saline with Tween-80): 101 % of control
T/C (dose: 25.0 mg/kg/injection, schedule: Q01DX005 (ip), vehicle: saline with Tween-80): 105 % of control

CCn1c2ccccc2c2cc(N)c(N=Nc3ccc(-c4ccc(N)c(OC)c4)cc3OC)cc21
T/C [4]: 94 % of control
T/C [5]: 95 % of control
T/C (dose: 400.0 mg/kg/injection, schedule: Q04DX003 (ip), vehicle: Klucel (hydroxypropylcellulose) (HPC)): 88 % of control

Cc1ccccc1C(C)(O)c1cnc(C)n1Cc1ccccc1 (stereo unspecified)
T/C (dose: 60.0 mg/kg/injection, schedule: Q01DX005 (ip), vehicle: Klucel (hydroxypropylcellulose) (HPC)): 111 % of control
T/C (dose: 120.0 mg/kg/injection, schedule: Q01DX005 (ip), vehicle: Klucel (hydroxypropylcellulose) (HPC)): 96 % of control
T/C (dose: 240.0 mg/kg/injection, schedule: Q01DX005 (ip), vehicle: Klucel (hydroxypropylcellulose) (HPC)): 91 % of control

CC1CN1CC(O)C(O)CN1CC1C (stereo unspecified)
T/C (dose: 0.01 mg/kg/injection, schedule: Q04DX003 (ip), vehicle: saline): 109 % of control
T/C (dose: 0.02 mg/kg/injection, schedule: Q04DX003 (ip), vehicle: saline): 104 % of control
T/C (dose: 0.15 mg/kg/injection, schedule: Q04DX003 (ip), vehicle: saline): 160 % of control
T/C (dose: 0.3 mg/kg/injection, schedule: Q04DX003 (ip), vehicle: saline): 170 % of control
T/C (dose: 0.5 mg/kg/injection, schedule: Q04DX003 (ip), vehicle: saline): 160 % of control
T/C (dose: 0.6 mg/kg/injection, schedule: Q04DX003 (ip), vehicle: saline): 170 % of control
T/C (dose: 0.62 mg/kg/injection, schedule: Q04DX003 (ip), vehicle: saline): 154 % of control
T/C (dose: 1.0 mg/kg/injection, schedule: Q04DX003 (ip), vehicle: saline): 185 % of control
T/C (dose: 1.25 mg/kg/injection, schedule: Q01DX009 (ip), vehicle: saline with Tween-80): 272 % of control
T/C (dose: 1.25 mg/kg/injection, schedule: Q04DX003 (ip), vehicle: saline): 163 % of control
T/C (dose: 2.0 mg/kg/injection, schedule: Q04DX003 (ip), vehicle: saline): 240 % of control
T/C (dose: 2.5 mg/kg/injection, schedule: Q01DX009 (ip), vehicle: saline with Tween-80): 95 % of control
T/C (dose: 2.5 mg/kg/injection, schedule: Q01DX009 (ip), vehicle: saline): 222 % of control
T/C (dose: 2.5 mg/kg/injection, schedule: Q04DX003 (ip), vehicle: saline): 222 % of control
T/C (dose: 3.0 mg/kg/injection, schedule: Q04DX003 (ip), vehicle: saline): 172 % of control
T/C (dose: 3.3 mg/kg/injection, schedule: Q04DX003 (ip), vehicle: saline): 212 % of control
T/C (dose: 5.0 mg/kg/injection, schedule: Q01DX009 (ip), vehicle: saline): 122 % of control
T/C (dose: 5.0 mg/kg/injection, schedule: Q04DX003 (ip), vehicle: saline): 231 % of control and 183 % of control and 230 % of control
T/C (dose: 6.0 mg/kg/injection, schedule: Q04DX003 (ip), vehicle: saline): 268 % of control
T/C (dose: 7.5 mg/kg/injection, schedule: Q04DX003 (ip), vehicle: saline): 272 % of control
T/C (dose: 10.0 mg/kg/injection, schedule: Q04DX003 (ip), vehicle: saline): 268 % of control
T/C (dose: 63.0 micrograms/kg/injection, schedule: Q04DX003 (ip), vehicle: saline): 100 % of control
T/C (dose: 125.0 micrograms/kg/injection, schedule: Q04DX003 (ip), vehicle: saline): 100 % of control
T/C (dose: 250.0 micrograms/kg/injection, schedule: Q04DX003 (ip), vehicle: saline): 104 % of control

C=C(COC(C)=O)CC(CC(=C)CC(OC(C)=O)Sc1ccccc1)S(=O)(=O)c1ccccc1 (stereo unspecified)
T/C (dose: 60.0 mg/kg/injection, schedule: Q01DX005 (ip), vehicle: saline + Tween-80 + alcohol): 106 % of control
T/C (dose: 120.0 mg/kg/injection, schedule: Q01DX005 (ip), vehicle: saline + Tween-80 + alcohol): 104 % of control
T/C (dose: 240.0 mg/kg/injection, schedule: Q01DX005 (ip), vehicle: saline + Tween-80 + alcohol): 104 % of control

NC(N)=NCCCCCC(=O)O
T/C [6]: 100 % of control
T/C (dose: 100.0 mg/kg/injection, schedule: Q01DX009 (ip), vehicle: saline): 109 % of control

CC(=O)Nn1nnc2ccccc2c1=O
T/C [1]: 97 % of control
T/C [2]: 110 % of control
T/C [3]: 110 % of control

C1CN2CCN1CC2.[Cl][Pt]([Cl])[Cl]
T/C (dose: 100.0 mg/kg/injection, schedule: Q04DX002 (ip), vehicle: saline with Tween-80): 117 % of control
T/C (dose: 200.0 mg/kg/injection, schedule: Q04DX002 (ip), vehicle: saline with Tween-80): 117 % of control

C/C(=N\NC(=S)N1CCCCCC1)c1ccc[nH]1
T/C [7]: 111 % of control
T/C [8]: 102 % of control
T/C [9]: 107 % of control

CCCN(CCC)c1nc2ccc(NC(=O)OCC)cc2s1
T/C (dose: 12.5 mg/kg/injection, schedule: Q01DX009 (ip), vehicle: saline): 95 % of control
T/C (dose: 25.0 mg/kg/injection, schedule: Q01DX009 (ip), vehicle: saline): 100 % of control
T/C [10]: 101 % of control
T/C [6]: 100 % of control

C=C1C(=O)OC2C1CCC(=C)C1CC(O)C(=C)C12 (stereo unspecified)
T/C (dose: 9.37 mg/kg/injection, schedule: Q01DX009 (ip), vehicle: suspension in saline): 103 % of control
T/C (dose: 18.75 mg/kg/injection, schedule: Q01DX009 (ip), vehicle: suspension in saline): 119 % of control and 123 % of control
T/C (dose: 37.5 mg/kg/injection, schedule: Q01DX009 (ip), vehicle: suspension in saline): 121 % of control

O=C1c2ccccc2C(=O)c2c(O)c(NCCO)cc(O)c21
T/C [7]: 92 % of control
T/C [8]: 101 % of control
T/C [9]: 93 % of control

Nc1nc(C2CCCC2)cc(=O)[nH]1
T/C (dose: 50.0 mg/kg/injection, schedule: Q01DX005 (ip), vehicle: Klucel (hydroxypropylcellulose) (HPC)): 108 % of control
T/C (dose: 100.0 mg/kg/injection, schedule: Q01DX005 (ip), vehicle: Klucel (hydroxypropylcellulose) (HPC)): 105 % of control
T/C (dose: 200.0 mg/kg/injection, schedule: Q01DX005 (ip), vehicle: Klucel (hydroxypropylcellulose) (HPC)): 97 % of control

Nc1ccc2c(Cl)cc(Cl)cc2c1
T/C [10]: 100 % of control
T/C [11]: 104 % of control

CCOC(=O)CC1NCCc2c1[nH]c1ccccc21 (stereo unspecified)
T/C (dose: 6.25 mg/kg/injection, schedule: Q01DX001 (ip), vehicle: saline sonified): 90 % of control
T/C (dose: 12.5 mg/kg/injection, schedule: Q01DX001 (ip), vehicle: saline sonified): 90 % of control
T/C (dose: 25.0 mg/kg/injection, schedule: Q01DX001 (ip), vehicle: saline sonified): 100 % of control

CCCCCCCCCCCC(=O)/C=C/c1ccccc1
T/C (dose: 50.0 mg/kg/injection, schedule: Q01DX009 (ip), vehicle: Klucel (hydroxypropylcellulose) (HPC)): 102 % of control
T/C (dose: 100.0 mg/kg/injection, schedule: Q01DX009 (ip), vehicle: Klucel (hydroxypropylcellulose) (HPC)): 93 % of control
T/C (dose: 200.0 mg/kg/injection, schedule: Q01DX009 (ip), vehicle: Klucel (hydroxypropylcellulose) (HPC)): 94 % of control

Nc1ccc(CNC(=O)COc2cccc(Cl)c2)cc1
T/C [7]: 102 % of control
T/C [8]: 108 % of control
T/C [9]: 96 % of control

CC12CCC3c4ccc(O)cc4CCC3C1C/C(=C\C(=O)O)C2O (stereo unspecified)
T/C (dose: 25.0 mg/kg/injection, schedule: Q04DX003 (ip), vehicle: Klucel (hydroxypropylcellulose) (HPC)): 116 % of control
T/C (dose: 50.0 mg/kg/injection, schedule: Q04DX003 (ip), vehicle: Klucel (hydroxypropylcellulose) (HPC)): 100 % of control and 104 % of control and 110 % of control
T/C [4]: 100 % of control (2×) and 111 % of control
T/C [5]: 99 % of control and 100 % of control and 121 % of control

O=C1OC(=Nc2cccc([N+](=O)[O-])c2)c2ccccc21
T/C (dose: 25.0 mg/kg/injection, schedule: Q01DX009 (ip), vehicle: saline with Tween-80): 99 % of control and 103 % of control
T/C [10]: 100 % of control and 95 % of control
T/C [11]: 99 % of control and 95 % of control
T/C (dose: 200.0 mg/kg/injection, schedule: Q01DX009 (ip), vehicle: saline with Tween-80): 88 % of control and 95 % of control
